Measurements from patent US11446287B2, “Compounds and methods for EP300 or CBP modulation and indications therefor” (Opna Immuno-Oncology SA, priority 2019, dated 2022).

target: T1, Recombinant human EP300 containing the bromodomain (EP300-BD (1040-1161)) (Homo sapiens, UniProt Q09472); experiment: EP300 Alphascreen binding assay
T1 construct: Recombinant human EP300 bromodomain (EP300-BD (1040-1161)); made in house; host or cells: E. coli BL21-CodonPlus (DE3), modified pET vector
T1 sequence (Q09472 1040-1161): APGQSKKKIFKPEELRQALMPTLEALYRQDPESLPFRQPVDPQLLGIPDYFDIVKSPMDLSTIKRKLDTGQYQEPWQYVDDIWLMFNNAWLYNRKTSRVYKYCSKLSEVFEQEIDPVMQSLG
Outline: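 Displacement of a biotinylated acetyl-K56 histone H3 peptide from the N-His bromodomain construct (1040-1161) measured by AlphaScreen proximity, beads at 7.5 μg/ml final, read 60 min after addition. Protein, peptide and compound first incubated 1 h at room temperature, pH 7.5 HEPES buffer; IC50 by four-parameter logistic fit.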

| Structure (SMILES) | IC50 [nM] |
| --- | --- |
| Cc1noc(C)c1-c1cnc2c(c1)c(-c1ccc(C(=O)O)cc1OC(F)(F)F)cn2-c1cnc(C2CC2)nc1 [P-0384, 4-(1-(2-cyclopropylpyrimidin-5-yl)-5-(3,5-dimethylisoxazol-4-yl)-1H-pyrrolo[2,3-b]pyridin-3-yl)-3-(trifluoromethoxy)benzoic acid] | 0.1 to 1000 |
| CCOc1cc(C(=O)O)c(F)cc1-c1cn(-c2ccccc2F)c2ncc(-c3c(C)noc3C)cc12 [P-0377, 4-(5-(3,5-dimethylisoxazol-4-yl)-1-(2-fluorophenyl)-1H-pyrrolo[2,3-b]pyridin-3-yl)-5-ethoxy-2-fluorobenzoic acid] | 0.1 to 1000 |
| Cc1ncccc1-n1cc(-c2ccc(C(=O)O)cc2OC(F)(F)F)c2cc(-c3c(C)noc3C)cnc21 [P-0317, 4-(5-(3,5-dimethylisoxazol-4-yl)-1-(2-methylpyridin-3-yl)-1H-pyrrolo[2,3-b]pyridin-3-yl)-3-(trifluoromethoxy)benzoic acid] | 0.1 to 1000 |
| Cc1noc(C)c1-c1cnc2c(c1)c(-c1ccc(C(=O)O)cc1OC(C)C)c(C)n2C(C1CC1)C1CC1 [P-0342, 4-(1-(dicyclopropylmethyl)-5-(3,5-dimethylisoxazol-4-yl)-2-methyl-1H-pyrrolo[2,3-b]pyridin-3-yl)-3-isopropoxybenzoic acid] | 0.1 to 1000 |
| CCOc1cc(C(=O)O)c(F)c(OCC)c1-c1cn(C2CCOCC2)c2ncc(-c3c(C)noc3C)cc12 [P-0374, 4-(5-(3,5-dimethylisoxazol-4-yl)-1-(tetrahydro-2H-pyran-4-yl)-1H-pyrrolo[2,3-b]pyridin-3-yl)-3,5-diethoxy-2-fluorobenzoic acid] | 0.1 to 1000 |
| COc1cc(C(=O)O)ncc1-c1cn(-c2ccncc2Cl)c2ncc(-c3c(C)noc3C)cc12 [P-0324, 5-(1-(3-chloropyridin-4-yl)-5-(3,5-dimethylisoxazol-4-yl)-1H-pyrrolo[2,3-b]pyridin-3-yl)-4-methoxypicolinic acid] | 0.1 to 1000 |
| Cc1noc(C)c1-c1cnc2c(c1)c(-c1c(F)cc(C(=O)O)cc1OC(C)C)cn2C(C1CC1)C1CC1 [P-0369, 4-(1-(dicyclopropylmethyl)-5-(3,5-dimethylisoxazol-4-yl)-1H-pyrrolo[2,3-b]pyridin-3-yl)-3-fluoro-5-isopropoxybenzoic acid] | 0.1 to 1000 |
| Cc1noc(C)c1-c1cnc2c(c1)c(-c1ccc(C(=O)O)cc1OC(F)(F)F)cn2CC1(C#N)CCC1 [P-0364, 4-(1-((1-cyanocyclobutyl)methyl)-5-(3,5-dimethylisoxazol-4-yl)-1H-pyrrolo[2,3-b]pyridin-3-yl)-3-(trifluoromethoxy)benzoic acid] | 0.1 to 1000 |
| Cc1noc(C)c1-c1cnc2c(c1)c(-c1ccc(C(=O)O)cc1OC1CCC1)cn2-c1cnn(C(F)F)c1C [P-0353, 3-cyclobutoxy-4-(1-(1-(difluoromethyl)-5-methyl-1H-pyrazol-4-yl)-5-(3,5-dimethylisoxazol-4-yl)-1H-pyrrolo[2,3-b]pyridin-3-yl)benzoic acid] | 0.1 to 1000 |
| Cc1nn(CC(=O)N(C)C)cc1-n1cc(-c2ccc(C(=O)O)cc2OC(F)(F)F)c2cc(-c3c(C)noc3C)cnc21 [P-0366, 4-(1-(1-(2-(dimethylamino)-2-oxoethyl)-3-methyl-1H-pyrazol-4-yl)-5-(3,5-dimethylisoxazol-4-yl)-1H-pyrrolo[2,3-b]pyridin-3-yl)-3-(trifluoromethoxy)benzoic acid] | 0.1 to 1000 |
| Cc1noc(C)c1-c1cnc2c(c1)c(-c1ccc(C(=O)O)cc1OC(F)(F)F)cn2C1CCCC1 [P-0382, 4-(1-cyclopentyl-5-(3,5-dimethylisoxazol-4-yl)-1H-pyrrolo[2,3-b]pyridin-3-yl)-3-(trifluoromethoxy)benzoic acid] | 0.1 to 1000 |
| Cc1noc(C)c1-c1cnc2c(c1)c(-c1ccc(C(=O)O)cc1OC(F)(F)F)cn2-c1ccc(C(=O)O)cc1 [P-0322, 4-(1-(4-carboxyphenyl)-5-(3,5-dimethylisoxazol-4-yl)-1H-pyrrolo[2,3-b]pyridin-3-yl)-3-(trifluoromethoxy)benzoic acid] | 0.1 to 1000 |
| CCOc1cc(C(=O)O)cc(Cl)c1-c1cn(C(C2CC2)C2CC2)c2ncc(-c3c(C)noc3C)cc12 [P-0370, 3-chloro-4-(1-(dicyclopropylmethyl)-5-(3,5-dimethylisoxazol-4-yl)-1H-pyrrolo[2,3-b]pyridin-3-yl)-5-ethoxybenzoic acid] | 0.1 to 1000 |
| Cc1noc(C)c1-c1cnc2c(c1)c(-c1c(F)cc(C(=O)O)cc1OCC(F)F)cn2-c1ccccc1 [P-0327, 3-(2,2-difluoroethoxy)-4-(5-(3,5-dimethylisoxazol-4-yl)-1-phenyl-1H-pyrrolo[2,3-b]pyridin-3-yl)-5-fluorobenzoic acid] | 0.1 to 1000 |
| Cc1noc(C)c1-c1cnc2c(c1)c(-c1ccc(C(=O)O)cc1OC(C)C)cn2-c1cnn(C(F)F)c1C [P-0354, 4-(1-(1-(difluoromethyl)-5-methyl-1H-pyrazol-4-yl)-5-(3,5-dimethylisoxazol-4-yl)-1H-pyrrolo[2,3-b]pyridin-3-yl)-3-isopropoxybenzoic acid] | 0.1 to 1000 |
| Cc1noc(C)c1-c1cnc2c(c1)c(-c1c(Cl)cc(C(=O)O)cc1OC(F)(F)F)cn2-c1cnc(C2CC2)nc1 [P-0386, 3-chloro-4-(1-(2-cyclopropylpyrimidin-5-yl)-5-(3,5-dimethylisoxazol-4-yl)-1H-pyrrolo[2,3-b]pyridin-3-yl)-5-(trifluoromethoxy)benzoic acid] | 0.1 to 1000 |
| Cc1noc(C)c1-c1cnc2c(c1)c(-c1ccc(C(=O)O)cc1OC(F)(F)F)cn2-c1ccc(C(N)=O)cc1 [P-0323, 4-(1-(4-carbamoylphenyl)-5-(3,5-dimethylisoxazol-4-yl)-1H-pyrrolo[2,3-b]pyridin-3-yl)-3-(trifluoromethoxy)benzoic acid] | 0.1 to 1000 |
| Cc1nn(CC(C)(C)O)cc1-n1cc(-c2ccc(C(=O)O)cc2OC(F)(F)F)c2cc(-c3c(C)noc3C)cnc21 [P-0365, 4-(5-(3,5-dimethylisoxazol-4-yl)-1-(1-(2-hydroxy-2-methylpropyl)-3-methyl-1H-pyrazol-4-yl)-1H-pyrrolo[2,3-b]pyridin-3-yl)-3-(trifluoromethoxy)benzoic acid] | 0.1 to 1000 |
| Cc1noc(C)c1-c1cnc2c(c1)c(-c1ccc(C(=O)O)cc1OC(C)C)cn2C1CCOCC1 [P-0357, 4-(5-(3,5-dimethylisoxazol-4-yl)-1-(tetrahydro-2H-pyran-4-yl)-1H-pyrrolo[2,3-b]pyridin-3-yl)-3-isopropoxybenzoic acid] | 0.1 to 1000 |
| CCOc1cc(C(=O)O)cc(Cl)c1-c1cn(C2CCOCC2)c2ncc(-c3c(C)noc3C)cc12 [P-0371, 3-chloro-4-(5-(3,5-dimethylisoxazol-4-yl)-1-(tetrahydro-2H-pyran-4-yl)-1H-pyrrolo[2,3-b]pyridin-3-yl)-5-ethoxybenzoic acid] | 0.1 to 1000 |
| Cc1noc(C)c1-c1cnc2c(c1)c(-c1c(Cl)cc(C(=O)O)cc1OC(F)(F)F)cn2C1CCOCC1 [P-0355, 3-chloro-4-(5-(3,5-dimethylisoxazol-4-yl)-1-(tetrahydro-2H-pyran-4-yl)-1H-pyrrolo[2,3-b]pyridin-3-yl)-5-(trifluoromethoxy)benzoic acid] | 0.1 to 1000 |
| Cc1noc(C)c1-c1cnc2c(c1)c(-c1ccc(C(=O)O)c(C(F)(F)F)c1)cn2C(c1ccccn1)C1CCCC1 (centres unmarked) [P-0029, 4-(1-(cyclopentyl(pyridin-2-yl)methyl)-5-(3,5-dimethylisoxazol-4-yl)-1H-pyrrolo[2,3-b]pyridin-3-yl)-2-(trifluoromethyl)benzoic acid] | 0.1 to 1000 |
| Cc1noc(C)c1-c1cnc2c(c1)c(-c1ccc(C(=O)O)cc1OC(F)(F)F)cn2-c1cncnc1 [P-0319, 4-(5-(3,5-dimethylisoxazol-4-yl)-1-(pyrimidin-5-yl)-1H-pyrrolo[2,3-b]pyridin-3-yl)-3-(trifluoromethoxy)benzoic acid] | 0.1 to 1000 |
| Cc1noc(C)c1-c1cnc2c(c1)c(-c1ccc(C(C)(C)C(=O)O)cc1)cn2C(c1ccccn1)C1CCCC1 (centres unmarked) [P-0032, 2-(4-(1-(cyclopentyl(pyridin-2-yl)methyl)-5-(3,5-dimethylisoxazol-4-yl)-1H-pyrrolo[2,3-b]pyridin-3-yl)phenyl)-2-methylpropanoic acid] | 0.1 to 1000 |
| Cc1noc(C)c1-c1cnc2c(c1)c(-c1ccc(C(F)(F)C(=O)O)cc1)cn2C(c1ccccn1)C1CCCC1 (centres unmarked) [P-0034, 2-(4-(1-(cyclopentyl(pyridin-2-yl)methyl)-5-(3,5-dimethylisoxazol-4-yl)-1H-pyrrolo[2,3-b]pyridin-3-yl)phenyl)-2,2-difluoroacetic acid] | 0.1 to 1000 |
| Cc1noc(C)c1-c1cnc2c(c1)c(-c1ccc(C(=O)O)cc1OC1CCC1)cn2[C@H]1CCOC1 [P-0350, (S)-3-cyclobutoxy-4-(5-(3,5-dimethylisoxazol-4-yl)-1-(tetrahydrofuran-3-yl)-1H-pyrrolo[2,3-b]pyridin-3-yl)benzoic acid] | 0.1 to 1000 |
| Cc1noc(C)c1-c1cnc2c(c1)c(-c1ccc(CC(=O)O)cc1)cn2C(c1ccccn1)C1CCCC1 (centres unmarked) [P-0031, 2-(4-(1-(cyclopentyl(pyridin-2-yl)methyl)-5-(3,5-dimethylisoxazol-4-yl)-1H-pyrrolo[2,3-b]pyridin-3-yl)phenyl)acetic acid] | 0.1 to 1000 |
| COc1ncccc1-n1cc(-c2ccc(C(=O)O)cc2OC(F)(F)F)c2cc(-c3c(C)noc3C)cnc21 [P-0316, 4-(5-(3,5-dimethylisoxazol-4-yl)-1-(2-methoxypyridin-3-yl)-1H-pyrrolo[2,3-b]pyridin-3-yl)-3-(trifluoromethoxy)benzoic acid] | 0.1 to 1000 |
| Cc1noc(C)c1-c1cnc2c(c1)c(-c1ccc(C(=O)O)cc1OC(F)(F)F)c(C)n2C(C1CC1)C1CC1 [P-0343, 4-(1-(dicyclopropylmethyl)-5-(3,5-dimethylisoxazol-4-yl)-2-methyl-1H-pyrrolo[2,3-b]pyridin-3-yl)-3-(trifluoromethoxy)benzoic acid] | 0.1 to 1000 |
